{
  "source": "paper PMC11509018",
  "about": "“Evaluation of the Role of Tanshinone I in an In Vitro System of Charcot-Marie-Tooth Disease Type 2N” (International Journal of Molecular Sciences, 2024)",
  "target": "T1, AlaRS G102R binding to Nrp1 (Homo sapiens, UniProt P49588, G102R)",
  "T1 construct": "expressed in transfected cells",
  "T1 sequence (P49588 1-968 G102R)": "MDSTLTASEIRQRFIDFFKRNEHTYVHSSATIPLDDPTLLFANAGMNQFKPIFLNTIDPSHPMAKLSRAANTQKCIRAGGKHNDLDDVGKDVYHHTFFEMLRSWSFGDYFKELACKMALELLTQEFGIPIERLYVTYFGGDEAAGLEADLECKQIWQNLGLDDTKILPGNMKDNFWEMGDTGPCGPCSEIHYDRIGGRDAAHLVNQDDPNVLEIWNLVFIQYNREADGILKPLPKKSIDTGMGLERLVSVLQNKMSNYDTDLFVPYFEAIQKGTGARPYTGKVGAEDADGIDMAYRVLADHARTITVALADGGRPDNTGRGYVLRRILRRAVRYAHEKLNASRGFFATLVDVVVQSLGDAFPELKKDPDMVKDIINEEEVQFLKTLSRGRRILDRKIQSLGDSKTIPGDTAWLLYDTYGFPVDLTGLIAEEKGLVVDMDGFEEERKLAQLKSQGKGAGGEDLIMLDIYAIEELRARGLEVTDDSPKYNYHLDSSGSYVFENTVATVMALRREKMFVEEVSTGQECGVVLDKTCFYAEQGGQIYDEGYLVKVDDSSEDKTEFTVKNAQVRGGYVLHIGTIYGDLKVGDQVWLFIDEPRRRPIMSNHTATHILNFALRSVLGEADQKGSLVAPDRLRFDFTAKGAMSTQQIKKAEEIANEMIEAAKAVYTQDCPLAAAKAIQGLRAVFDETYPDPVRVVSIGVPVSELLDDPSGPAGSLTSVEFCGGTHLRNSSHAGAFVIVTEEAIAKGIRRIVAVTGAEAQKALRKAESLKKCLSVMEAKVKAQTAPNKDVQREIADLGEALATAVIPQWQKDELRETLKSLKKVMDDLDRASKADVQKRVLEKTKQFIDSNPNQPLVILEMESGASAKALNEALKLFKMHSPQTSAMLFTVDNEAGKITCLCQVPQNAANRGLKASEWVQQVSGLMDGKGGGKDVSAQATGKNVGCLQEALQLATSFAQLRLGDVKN",
  "test": "Co-IP of HA-AlaRS mutant with Nrp1 in transfected cells",
  "format": "cell-based",
  "details": "20 µM Tanshinone I for 24 h, ImageJ, average of three repeats",
  "data": [
    {"molecule": "Cc1coc2c1C(=O)C(=O)c1c-2ccc2c(C)cccc12", "note": "[Tanshinone I]", "values": [
      {"measurement": "Mean density band (G102R), relative quantification of AlaRS mutant immunoprecipitated", "result": 0.53}
    ]}
  ]
}
